Where two headings read alike, the source gives them in different places. *1 amine or outer side, *2 acyl side, *3 side chain or, on linkers, in order; H or OH if unused. Where a SMILES comes first, the peptide text is derived from it. Bridges are numbered along the chain shown (N, C = ends). Roman numbers before positions name the chains, in order. [ ]: non-standard residue; d: D form. The star is where a group is joined. X3 = CN1/C(=C/C=C/C=C/C2=[N+](CCCCCC(=O)*)c3ccc4ccccc4c3C2(C)C)C(C)(C)c2c1ccc1ccccc21; Dolaproine = CO[C@@H]([C@@H]1CCCN1)[C@@H](C)C(=O)O; Dil = CC[C@H](C)[C@H](NC)[C@@H](CC(=O)O)OC; X4 = O=C1CC([*:2])C(=O)N1CCCCCC(=O)[*:1]; γGlu = O=C(O)[C@H](CCC(=O)[*:2])N[*:1]; PABC = O=C(OCc1ccc(N[*:1])cc1)[*:2]; X2 = C[C@@H](N*)[C@@H](O)c1ccccc1; Trx = NC[C@H]1CC[C@H](C(=O)O)CC1; Cit = NC(=O)NCCC[C@H](N)C(=O)O; NMeV = CN[C@H](C(=O)O)C(C)C; CO = O=C([*:1])[*:2]; Ahx = NCCCCCC(=O)O
How the values were obtained:
PSMA receptor = details: cited from earlier work
Text: Prostate-specific membrane antigen (PSMA) is a type II transmembrane protein that is overexpressed (by 100–1000 fold) by virtually all prostate cancers. PSMA expression is further increased in poorly differentiated, metastatic, hormone-refractory carcinomas and in cancer cells from castration-resistant prostate cancer patients. Increased PSMA expression is correlated with the risk of early prostate cancer recurrence after radical prostatectomy. […] BIND014 increased intr ...

[1] = test system: PSMA-positive PC3pip cells; assay: In vitro cytotoxicity assay (CCK-8), PC3pip; assay type: cell-based, human
Protocol: (§1) Cells (1000/well) were seeded in 96-well culture plates the day before treatment.

[2] = test system: heterotopic PC3pip tumors; assay: Heterotopic PC3pip tumor survival study; assay type: in vivo
Protocol: Male athymic nude mice were implanted subcutaneously with 1 × 10^6 of PC3pip cells 100 μL of matrigel. When tumor size reached approximately 100 mm^3 (tumor volume = Length × width^2/2), mice received drugs through tail vein injection every 4 days with a total of five doses. Mice were treated every 4 days with a total of five doses. Animals were weighed and tumor size measured every other day for 90 days. Cures were defined as no tumor present at end of the 90-day study. When tumors became too large or animals were moribund they were euthanized. Five mice were used in each group.

[3] = test system: PSMA-negative PC3flu cells; assay: In vitro cytotoxicity assay (CCK-8), PC3flu; assay type: cell-based, human; details: 72 h incubation, CCK-8; mean ± SD
Protocol: as §1

[4] = test system: tumor-free athymic nude mice; assay: Maximum tolerated dose, single i.v. dose; assay type: in vivo, mouse; details: male nude mice, 3 per dose group, 14 days, 20% body weight loss or overt toxicity as end point
Text: Mice were monitored daily for 14 days.

[5] = test system: α-tubulin in PC3pip cells; assay: Immunofluorescence analysis of alpha-tubulin, PC3pip; assay type: cell-based, human; details: 5 nM, 24 h, Alexa Fluor 488 α-tubulin antibody
Protocol: (§2) Cells were washed and fixed with 4% paraformaldehyde for 10 min, permeabilized with 0.1% Triton™ X-100 for 10 min, and blocked with 1% BSA for 1 h at room temperature. Alpha-tubulin (B5-1-2) Alexa Fluor 488 Mouse Monoclonal Antibody (Invitrogen) was then added at 2 µg/mL in 0.1% BSA and incubated for 3 h at room temperature. Cells were counterstained with DAPI, mounted with Fluor-Mount aqueous mounting solution, and observed under Leica DM4000B fluorescence microscopy at 40×.

human liver cathepsin B = target: T1, human liver cathepsin B (Homo sapiens, UniProt P07858); assay: Enzymatic cleavage by cathepsin B, HPLC analysis; assay type: in vitro ADME; details: activated human liver cathepsin B, 2 μM conjugate, 37 °C, triplicate
T1 construct: purchased Anthens Research and Technology, Anthens, AL, USA (so in the source); host or cells: human liver (tissue-derived enzyme)
Protocol: (§3) Cathepsin is a prevalent protease that PSMA internalized ligands will encounter as they enter into late endosomes/lysosomes. To investigate if PSMA-targeted drug conjugates were cleavable by cathepsin B, the two conjugates were incubated with or without cathepsin protease and chromatographed by high performance liquid chromatography (HPLC).
(§4) At different time intervals, 40 μL of the solution was taken out into tubes loaded with 1 μL of 1 mM E64 protease inhibitor. […] Studies were performed in triplicate.

[6] = test system: PSMA-negative PC3flu cells; assay: In vitro cellular uptake (confocal fluorescence), PC3flu; assay type: cell-based, human; details: 50 nM conjugate, 4 h, 37 °C, confocal microscopy
Protocol: Figure 2 In vitro fluorescence studies of PSMA-1-MMAE-Cy5.5 conjugates. In vitro cellular uptake results of PSMA-targeted drug conjugates. Cells were incubated with 50 nM of drug conjugates for 4 h. Nuclei were stained by DAPI and are false colored blue, lysosomes were detected by LysoOrange and are false colored green, and drug conjugates are false colored red. Selective uptake was observed only in PC3pip cells and the conjugates were mainly located in lysosomes. Specificity of drug conjugates for PSMA binding was evaluated by including 1 mM of unlabeled PSMA-1 ligand during incubations. […] Images are taken at 40×. Representative images are shown from three independent experiments.
PC3pip and PC3flu cells were seeded in µ-Slide 8-Well Chamber Slide (ibidi GmbH, Munich, Germany) at 2000 cells/well. […] Cells were washed with PBS and stained with DAPI and LysoOrange (Abcam Inc., Cambridge, UK) for 30 min at 37 °C and 5% CO2, after which they were washed again with PBS and fresh medium added. Selectivity was determined by including 20-fold excess of the PSMA-1 ligand. The uptake and localization of the drug conjugates were visualized under a confocal microscope (Leica Biosystem, Wetzlar, Germany) at 40×.

[7] = Stability on incubation in PBS (without cathepsin), HPLC; assay type: in vitro ADME; details: incubation with PBS without cathepsin, triplicate
Protocol: as §3, §4

[8] = test system: α-tubulin in PC3flu cells; assay: Immunofluorescence analysis of alpha-tubulin, PC3flu; assay type: cell-based, human; details: 5 nM, 24 h, Alexa Fluor 488 α-tubulin antibody
Protocol: as §2

[9] = test system: heterotopic PC3pip and PC3flu tumors; assay: In vivo NIR fluorescence imaging, mice bearing PC3pip and PC3flu tumors; set-up: species or system mouse; details: 40 nmol/kg i.v., 24-h post-injection, n = 5
Protocol: Under guidelines of the animal care and use committee at Case Western Reserve University (IACUC#150033) 6–8-week old male Balb/c athymic nude mice were implanted subcutaneously with 1 × 10^6 of PC3flu and PC3pip in 100 μL of matrigel on the left and right flank, respectively. […] Fluorescence imaging was performed using the Maestro In Vivo Imaging system (Perkin-Elmer Inc., Waltham, MA, USA). At 72-h post injection, mice were euthanized, tumor and organs were extracted for ex vivo imaging. Tumors were snap-frozen in OCT, cut into 10 μm thick sections and fixed on slides. The fluorescence signal from cy5.5 was observed under a Leica DM4000B microscope.

[10] = In vitro cytotoxicity assay (CCK-8), PC3pip; assay type: cell-based, human
Protocol: as §1

[11] = test system: heterotopic PC3pip tumors; assay: Heterotopic PC3pip tumor survival study; assay type: in vivo; details: 160 nmol/kg, tumors extracted on day 4, compared with PSMA-1-McMMAE-Cy5.5
[12] = 72 h incubation, CCK-8, mean ± SD
[13] = 160 nmol/kg i.v. every 4 days, five doses, n = 5

SMILES: O=C(O)CCC(NC(=O)NC(CCC(=O)O)C(=O)O)C(=O)O (stereo not drawn) [DUPA, 2-(3-(1,3-dicarboxypropyl)-ureido) pentanedioic acid]
- Ki (PSMA receptor; read-out: Ki to PSMA receptor (DUPA)): 8 nM

SMILES: CC[C@H](C)[C@@H]([C@@H](CC(=O)N1CCC[C@H]1[C@H](OC)[C@@H](C)C(=O)N[C@H](C)[C@@H](O)c1ccccc1)OC)N(C)C(=O)[C@@H](NC(=O)[C@@H](NC)C(C)C)C(C)C [MMAE, monomethyl auristatin E, reference compound] (H-[NMeV]V[Dil][Dolaproine]-X2)
- EC50 [1, 12]: 0.24 ± 0.05 nM
- selectivity, differential cytotoxicity ratio between PC3pip and PC3flu cells ([1]; more potent for PC3pip than PC3flu): no selectivity
- tumor growth (in words), 160 nmol/kg [2, 13]: did not show any antitumor activity
- therapeutic index ([2]; MTD/effective dose): 1
- lowest dose to effectively inhibit tumor growth ([2]; i.v. every 4 days, five doses, tumor growth inhibited for 30 days, n = 5): 700 nmol/kg
- EC50 [3]: 0.21 ± 0.04 nM
- maximum tolerated dose (MTD) [4]: 700 nmol/kg

SMILES: CC[C@H](C)[C@@H]([C@@H](CC(=O)N1CCC[C@H]1[C@H](OC)[C@@H](C)C(=O)N[C@H](C)[C@@H](O)c1ccccc1)OC)N(C)C(=O)[C@@H](NC(=O)[C@H](C(C)C)N(C)C(=O)CCCCCN1C(=O)CC(SC[C@H](NC(=O)[C@@H](CCC(=O)O)NC(=O)[C@@H](CCC(=O)O)NC(=O)[C@@H](CCC(=O)O)NC(=O)CCCCCNC(=O)[C@H]2CC[C@H](CNC(=O)CC[C@H](NC(=O)N[C@@H](CCC(=O)O)C(=O)O)C(=O)O)CC2)C(=O)NCCCCCC(=O)N[C@@H](CCCCNC(=O)CCCCC[N+]2=C(/C=C/C=C/C=C3/N(C)c4ccc5ccccc5c4C3(C)C)C(C)(C)c3c2ccc2ccccc32)C(N)=O)C1=O)C(C)C (stereo partly drawn) [PSMA-1-McMMAE-Cy5.5]
- EC50, cytotoxicity to PC3pip cells [1, 12]: no EC50 values could be obtained
- disruption of α-tubulin in PC3pip cells (in words) [5]: no apparent disruption of tubulin
- cleavage by cathepsin B (in words) (human liver cathepsin B): remained intact
- cellular uptake, fluorescence in PC3flu cells (in words) [6]: no fluorescence signal was observed
- EC50, cytotoxicity to PC3flu cells [3]: no EC50 values could be obtained
- stability in PBS (in words) [7]: stable
- disruption of α-tubulin in PC3flu cells (in words) [8]: no apparent disruption of tubulin
- uptake in PSMA-negative PC3flu tumors (in words) [9]: little to no detectable uptake

SMILES: CC[C@H](C)[C@@H]([C@@H](CC(=O)N1CCC[C@H]1[C@H](OC)[C@@H](C)C(=O)N[C@H](C)[C@@H](O)c1ccccc1)OC)N(C)C(=O)[C@@H](NC(=O)[C@H](C(C)C)N(C)C(=O)OCc1ccc(NC(=O)[C@H](CCCNC(N)=O)NC(=O)[C@@H](NC(=O)CCCCCN2C(=O)CC(SC[C@H](NC(=O)[C@@H](CCC(=O)O)NC(=O)[C@@H](CCC(=O)O)NC(=O)[C@@H](CCC(=O)O)NC(=O)CCCCCNC(=O)[C@H]3CC[C@H](CNC(=O)CC[C@H](NC(=O)N[C@@H](CCC(=O)O)C(=O)O)C(=O)O)CC3)C(=O)NCCCCCC(=O)N[C@@H](CCCCNC(=O)CCCCC[N+]3=C(/C=C/C=C/C=C4/N(C)c5ccc6ccccc6c5C4(C)C)C(C)(C)c4c3ccc3ccccc43)C(N)=O)C2=O)C(C)C)cc1)C(C)C (stereo partly drawn) [PSMA-1-VcMMAE-Cy5.5] (I: V[Cit][PABC][NMeV]V[Dil][Dolaproine]-X2 / II: {Glu-CO-γGlu-Trx-Ahx}-[dE][dE][dE]C[Ahx]K(X3)-NH2; linker I:N-II:4 via X4)
- EC50 ([10]; 72 h, CCK-8, in the presence of protease inhibitor E64 (50 μM given for the Cy5.5 conjugates), read-out: EC50, cytotoxicity to PC3pip cells + E64): 3.66 nM
- EC50 ([10]; 72 h incubation, CCK-8, mean ± SD, read-out: EC50, cytotoxicity to PC3pip cells): 0.84 nM
- disruption of α-tubulin in PC3pip cells (in words) [5]: selective tubulin disruption
- cleavage by cathepsin B (in words) (human liver cathepsin B): degraded rapidly
- half-life in the presence of cathepsin (human liver cathepsin B): 19.8 min
- cellular uptake, fluorescence in PC3flu cells (in words) [6]: no fluorescence signal was observed
- cures (tumor-free mice at end of 90-day study), 160 nmol/kg [2, 13]: 3/5 and three out of five
- tumor growth (in words), 160 nmol/kg [2, 13]: effectively inhibited tumor growth
- cures, lower dose group of Figure S4B ([2]; dose group not printed beside the label, i.v. every 4 days, five doses, n = 5): 1/5
- apoptosis, caspase 3 staining of tumors (in words) [11]: significantly more apoptosis
- stability in PBS (in words) [7]: stable
- disruption of α-tubulin in PC3flu cells (in words) [8]: no obvious changes in α-tubulin structure
- uptake in PSMA-negative PC3flu tumors (in words) [9]: little to no detectable uptake

SMILES: NCCCC[C@H](NC(=O)N[C@@H](CCC(=O)O)C(=O)O)C(=O)O [ZJ24, (S)-2-(3-((S)-5-amino-1-carboxypentyl)ureido) pentanedioic acid]
- Ki (PSMA receptor; read-out: Ki to PSMA (ZJ24)): 0.3 nM
